Patent US20210130308A1, “MODULATORS OF EUKARYOTIC INITIATION FACTOR 2” (Denali Therapeutics Inc., priority 2018, published 2021)
Read-outs that look alike come from different tables or passages of the source. Blank lines part the entries; values can stand above or below the compound they belong to.

Test system: ATF4 translation (ISR pathway activation)
Test: ATF4 Nano Luciferase reporter integrated stress response (ISR) assay in H4 ATF4-NLuc (clone 17) cells
Format: cell-based, human
Source text: Cellular stress leads to activation of the integrated stress response pathway through one of four eukaryotic initiation factor 2α kinases and halts global translation, while allowing for the translation of select transcripts like ATF4 (activating transcription factor 4) that are important for the response to cellular stress. During normal conditions, small open reading frames (ORFs) in the 5′ UTR of ATF4 occupy the ribosome and prevent translation of the coding sequence of ATF4. During stress conditions however, the ribosome scans past these upstream ORFs and preferentially begins translation at the coding sequence of ATF4. In this way, the translation, and thus protein level of ATF4 is a readout of ISR pathway activation. Thus, a fusion of the uORFs and the beginning of the coding sequence of ATF to a common cellular reporter like nano-luciferase allows for a sensitive and high-throughput readout of ISR pathway activity.
Compounds as provided herein were tested in the following assay. The ATF4 Nano Luciferase reporter was constructed by fusing the human full length 5′ untranslated region (5′-UTR) and a small portion of the coding sequence of the ATF4 gene upstream of the Nano Luciferase (NLuc) coding sequence lacking it's start codon. Specifically, nucleotides +1 through +364 (relative to the transcriptional start site) of ATF4 transcript variant 2 (NCBI NM_182810.2) flanked 5′ by EcoRI and 3′ by BamHI restriction enzyme sites were synthesized and cloned into the EcoRI/BamHI cloning sites of pLVX-EF1a-IRES-Puro lentivirus vector (Clontech). […]. H4 cells were selected with […] Puromycin, and clonal cell lines generated by limiting dilution. We utilized this cell line to generate an integrated stress response (ISR) assay to evaluate the activity of ISR pathway inhibitors via luminescence readout. The H4 ATF4-NLuc (clone 17) cell line is plated at a density of […] in 96-well or 384-well respectively in DMEM+10% fetal bovine serum. 24-hours later test compounds diluted in dimethyl sulfoxide (DMSO) are added for 30 minutes at 37 degree Celsius, followed by ISR pathway activation with 50 um sodium arsenite aqueous solution for 6 additional hours. Nano Glo luciferase reagent (N1150, Promega) is added according to manufacturer instructions and the luminescence signal (corresponding to the level of ATF4 translation and thus ISR pathway activation) is read with a standard plate reader with luminescence detection capabilities.
In the table below, activity of the tested compounds is provided in Table 3 as follows: +++=IC50<1 μM; ++=IC50 1-10 μM; +=IC50>10 μM.

[1] = Homo sapiens, 0.5 h, H4 ATF4-NLuc (clone 17) cells, compounds 30 minutes at 37 degree Celsius, then 50 um sodium arsenite for 6 additional hours, luminescence readout, read-out: IC50

IC50 [1]: < 1000 nM
Structure (SMILES): O=C(COC1CC(CC(F)(F)F)C1)NC12CC(NC(=O)c3ccc4cc(C(F)(F)F)ccc4n3)(C1)C2 (stereo not shown) [Example 75]

IC50 [1]: < 1000 nM
Structure (SMILES): O=C(COCC1CC1(F)F)NC12CC(NC(=O)c3ccc4cc(C(F)(F)F)ccc4n3)(C1)C2 (stereo not shown) [Example 55, N-[1-[[2-[(2,2-difluorocyclopropyl)methoxy]acetyl]amino]-3-bicyclo[1.1.1]pentanyl]-6-(trifluoromethyl)quinoline-2-carboxamide]

Structure (SMILES): O=C(COc1ccc(Cl)c(F)c1)NC12CC(NC(=O)COC3CC(C(F)(F)F)C3)(C1)C2 (single isomer, unassigned) [12 (first eluting isomer), 2-(4-chloro-3-fluorophenoxy)-N-(3-(2-(3-(trifluoromethyl)cyclobutoxy)acetamido)bicyclo[1.1.1]pentan-1-yl)acetamide]
IC50 [1]: < 1000 nM

Structure (SMILES): O=C(COc1ccc(Cl)c(F)c1)NC1CCN(CCO[C@H]2C[C@@H](OC(F)(F)F)C2)CC1 [Example 27, 2-(4-chloro-3-fluoro-phenoxy)-N-[1-[2-[3-cis-(trifluoromethoxy)cyclobutoxy]ethyl]-4-piperidyl]acetamide]
IC50 [1]: < 1000 nM

Structure (SMILES): O=C(COc1ccc(Cl)c(F)c1)NC1CC2(CCN(C(=O)COC3CC(C(F)(F)F)C3)CC2)C1 (stereo not shown) [Example 16, 2-(4-chloro-3-fluoro-phenoxy)-N-[7-[2-[3-(trifluoromethyl)cyclobutoxy]acetyl]-7-azaspiro[3.5]nonan-2-yl]acetamide]
IC50 [1]: < 1000 nM

Structure (SMILES): O=C(COc1ccc(Cl)c(F)c1)N[C@H]1C[C@@H]2CN(C(=O)COC3CCC3)C[C@@H]2C1 [Example 40, 2-(4-chloro-3-fluorophenoxy)-N-((3aR,5s,6aS)-2-(2-cyclobutoxyacetyl)octahydrocyclopenta[c]pyrrol-5-yl)acetamide]
IC50 [1]: < 1000 nM

Structure (SMILES): O=C(COC1CC(OC(F)(F)F)C1)NC12CC(NC(=O)c3ccc4cc(C(F)(F)F)ccc4n3)(C1)C2 (stereo not drawn) [Example 51, N-[1-[[2-[3-cis-(trifluoromethoxy)cyclobutoxy]acetyl]amino]-3-bicyclo[1.1.1]pentanyl]-6-(trifluoromethyl)quinoline-2-carboxamide]
IC50 [1]: < 1000 nM

Structure (SMILES): O=C(COc1cccc(Cl)c1F)NC12CC(NC(=O)COC3CCC3)(C1)C2 [Example 13, 2-(3-chloro-2-fluoro-phenoxy)-N-[3-[[2-(cyclobutoxy)acetyl]amino]-1-bicyclo[1.1.1]pentanyl]acetamide]
IC50 (Homo sapiens, 0.5 h): 1000 to 10000 nM

Structure (SMILES): O=C(COc1ccc(Cl)c(F)c1)NC1CC2(C1)CN(C(=O)COC1CCC1)C2 [Example 19, 2-(4-chloro-3-fluoro-phenoxy)-N-[2-[2-(cyclobutoxy)acetyl]-2-azaspiro[3.3]heptan-6-yl]acetamide]
IC50 [1]: < 1000 nM

Structure (SMILES): CO[C@H]1CN(CCOC2CC(OC(F)(F)F)C2)CCC1NC(=O)COc1ccc(Cl)c(F)c1 (stereo partly drawn) [Example 48, 2-(4-chloro-3-fluoro-phenoxy)-N-[cis-3-methoxy-1-[2-[3-cis-(trifluoromethoxy)cyclobutoxy]ethyl]-4-piperidyl]acetamide]
IC50 [1]: < 1000 nM

Structure (SMILES): O=C(COc1ccc(Cl)c(F)c1)NC1CCN(CCOC2CC(OC(F)(F)F)C2)C(=O)C1 (stereo not drawn) [Example 56, 2-(4-chloro-3-fluorophenoxy)-N-(2-oxo-1-(2-(3-cis-(trifluoromethoxy)cyclobutoxy)ethyl)piperidin-4-yl)acetamide]
IC50 [1]: < 1000 nM

Structure (SMILES): O=C(COc1ccc(Cl)c(F)c1)NC1CCN(C(=O)COC2CC(OC(F)(F)F)C2)CC1 (stereo not drawn) [Example 62, 2-(4-chloro-3-fluoro-phenoxy)-N-[1-[2-[3-cis-(trifluoromethoxy)cyclobutoxy]acetyl]-4-piperidyl]acetamide]
IC50 [1]: < 1000 nM

Structure (SMILES): O=C(COc1ccc(Cl)c(F)c1)NC1CC2(C1)CN(C(=O)COC1CC(n3nccn3)C1)C2 (stereo not shown) [Example 18, 2-(4-chloro-3-fluoro-phenoxy)-N-[2-[2-[3-(triazol-2-yl)cyclobutoxy]acetyl]-2-azaspiro[3.3]heptan-6-yl]acetamide]
IC50 [1]: < 1000 nM

Structure (SMILES): CC1(C)CC(OCC(=O)NC23CC(NC(=O)COc4ccc(Cl)cc4)(C2)C3)C1 [Example 5, 2-(4-chlorophenoxy)-N-(3-(2-(3,3-dimethylcyclobutoxy)acetamido)bicyclo[1.1.1]pentan-1-yl)acetamide]
IC50 [1]: < 1000 nM

Structure (SMILES): O=C(COC1CC(OC(F)(F)F)C1)NC1CN(c2nnc(COc3ccc(Cl)c(F)c3)o2)C1 (stereo not drawn) [Example 22, N-[1-[5-[(4-chloro-3-fluoro-phenoxy)methyl]-1,3,4-oxadiazol-2-yl]azetidin-3-yl]-2-[3-cis-(trifluoromethoxy)cyclobutoxy]acetamide]
IC50 [1]: < 1000 nM

Structure (SMILES): O=C(COC1CCN(CC(F)(F)F)C1)NC12CC(NC(=O)c3ccc4cc(C(F)(F)F)ccc4n3)(C1)C2 (stereo not shown) [Example 73]
IC50 (Homo sapiens, 0.5 h): < 1000 nM

Structure (SMILES): O=C(COc1ccc(Cl)c(F)c1)NC1CCN(CC(F)(F)COC2CC(OC(F)(F)F)C2)CC1 (stereo not drawn) [Example 57, 2-(4-chloro-3-fluorophenoxy)-N-(1-(2,2-difluoro-3-(3-cis-(trifluoromethoxy)cyclobutoxy)propyl)piperidin-4-yl)acetamide]
IC50 [1]: < 1000 nM

IC50 [1]: < 1000 nM
Structure (SMILES): O=C(COc1ccc(Cl)c(F)c1)N[C@@H]1C[C@@H]2[C@H](C1)[C@H]2c1nnc(C2CC(OC(F)(F)F)C2)o1 (stereo partly drawn) [Example 43, 2-(4-chloro-3-fluoro-phenoxy)-N-[(1R,5S)-6-[5-[3-(trifluoromethoxy)cyclobutyl]-1,3,4-oxadiazol-2-yl]-3-bicyclo[3.1.0]hexanyl]acetamide]

Structure (SMILES): O=C(COc1ccc(Cl)c(F)c1)NC1CN(c2nnc(COC3CC(OC(F)(F)F)C3)o2)C1 (stereo not drawn) [Example 23, 2-(4-chloro-3-fluoro-phenoxy)-N-[1-[5-[[3-cis-(trifluoromethoxy)cyclobutoxy]methyl]-1,3,4-oxadiazol-2-yl]azetidin-3-yl]acetamide]
IC50 [1]: < 1000 nM

Structure (SMILES): O=C(COc1ccc(Cl)cc1)N[C@H]1CC[C@H](c2nnc(C3CC(OC(F)(F)F)C3)o2)CC1 (stereo partly drawn) [Example 29, 2-(4-chlorophenoxy)-N-[4-[5-[3-cis-(trifluoromethoxy)cyclobutyl]-1,3,4-oxadiazol-2-yl]cyclohexyl]acetamide]
IC50 (Homo sapiens, 0.5 h): < 1000 nM

Structure (SMILES): O=C(COC1CC(C(F)(F)F)C1)NC12CC(NC(=O)c3ccc4cc(C(F)(F)F)ccc4n3)(C1)C2 (stereo not shown) [Example 67, 6-(trifluoromethyl)-N-(3-(2-(3-(trifluoromethyl)cyclobutoxy)acetamido)bicyclo[1.1.1]pentan-1-yl)quinoline-2-carboxamide]
IC50 [1]: < 1000 nM

Structure (SMILES): O=C(COc1ccc(Cl)c(F)c1)NC1CC(OCCOC2CC(OC(F)(F)F)C2)C1 (single isomer, unassigned) [42 (isomer 2), 2-(4-chloro-3-fluoro-phenoxy)-N-[3-[2-[3-cis-(trifluoromethoxy)cyclobutoxy]ethoxy]-trans-cyclobutyl]acetamide]
IC50 (H4 ATF4-NLuc (clone 17) cells, compounds 30 minutes at 37 degree Celsius, then 50 um sodium arsenite for 6 additional hours, luminescence readout, read-out: IC50): < 1000 nM

IC50 [1]: < 1000 nM
Structure (SMILES): O=C(COc1ccc(Cl)c(F)c1)NC1CCN(c2nnc(C3CC(OC(F)(F)F)C3)o2)CC1 (stereo not drawn) [Example 26, 2-(4-chloro-3-fluoro-phenoxy)-N-[1-[5-[3-cis-(trifluoromethoxy)cyclobutyl]-1,3,4-oxadiazol-2-yl]-4-piperidyl]acetamide]

Structure (SMILES): O=C(COc1ccc(Cl)cc1)N[C@H]1C[C@@H]2CN(C(=O)COC3CC(OC(F)(F)F)C3)C[C@@H]2C1 (stereo partly shown) [Example 59]
IC50 (Homo sapiens, 0.5 h): < 1000 nM

Structure (SMILES): O=C(NC1CCN(C(=O)COC2CC(OC(F)(F)F)C2)CC1)c1ccc2cc(Cl)ccc2n1 (stereo not drawn) [Example 63, 6-chloro-N-[1-[2-[3-cis-(trifluoromethoxy)cyclobutoxy]acetyl]-4-piperidyl]quinoline-2-carboxamide]
IC50 [1]: < 1000 nM

Structure (SMILES): O=C(COC1CC(OC(F)(F)F)C1)NC1CCN(c2nnc(-c3ccc(Cl)cc3)o2)CC1 (stereo not drawn) [Example 44, N-[1-[5-(4-chlorophenyl)-1,3,4-oxadiazol-2-yl]-4-piperidyl]-2-[3-cis-(trifluoromethoxy)cyclobutoxy]acetamide]
IC50 (Homo sapiens, 0.5 h): < 1000 nM

Structure (SMILES): O=C(COc1ccc(Cl)c(F)c1)NCC1CCN(C(=O)COC2CC(OC(F)(F)F)C2)C1 (stereo not drawn) [Example 60, 2-(4-chloro-3-fluorophenoxy)-N-((1-(2-(3-cis-(trifluoromethoxy)cyclobutoxy)acetyl)pyrrolidin-3-yl)methyl)acetamide]
IC50 [1]: < 1000 nM

Structure (SMILES): O=C(COc1ccc(Cl)cc1)NC12CC(NC(=O)COC3CC(C(F)(F)F)C3)(C1)C2 (single isomer, unassigned) [3 (first eluting isomer), 2-(4-chlorophenoxy)-N-(3-(2-(3-(trifluoromethyl)cyclobutoxy)acetamido)bicyclo[1.1.1]pentan-1-yl)acetamide]
IC50 [1]: < 1000 nM
